# ChEMBL document CHEMBL1201862, “PubChem BioAssay data set” (2004)
# Calls of active or inactive are those of the source.
# Key:
# [1] = inhibitors of intracellular T. cruzi replication, confirmation, NIH3T3 host cells, beta-gal luminescence (AID 2044); type: functional, cell-based;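 note: intracellular parasites grown in NIH/3T3 mouse fibroblasts as host cells; luminescent beta-galactosidase reporter signal from transgenic T. cruzi replicating inside host cells; inhibitors lower the luminescence signal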
# [2] = target: T1, Sentrin-specific protease 8 (Homo sapiens, UniProt Q96LD8); type: functional;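 note: luminescence read-out of SENP8 inhibition, dose-response confirmation following an ultra-high-throughput screen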
# T1 sequence (Q96LD8 whole entry): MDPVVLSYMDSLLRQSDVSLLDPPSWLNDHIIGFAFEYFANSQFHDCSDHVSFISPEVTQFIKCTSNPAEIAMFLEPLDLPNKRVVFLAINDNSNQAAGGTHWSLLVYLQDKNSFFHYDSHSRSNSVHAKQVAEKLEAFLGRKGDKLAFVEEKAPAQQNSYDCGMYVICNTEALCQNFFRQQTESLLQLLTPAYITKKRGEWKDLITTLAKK
# [3] = target: T2, Sentrin-specific protease 7 (Homo sapiens, UniProt Q9BQF6); type: functional;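 note: Luminescence-based dose-response confirmation of ultra-high-throughput screening hits, measuring inhibition of SENP7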
# T2 sequence (Q9BQF6 whole entry): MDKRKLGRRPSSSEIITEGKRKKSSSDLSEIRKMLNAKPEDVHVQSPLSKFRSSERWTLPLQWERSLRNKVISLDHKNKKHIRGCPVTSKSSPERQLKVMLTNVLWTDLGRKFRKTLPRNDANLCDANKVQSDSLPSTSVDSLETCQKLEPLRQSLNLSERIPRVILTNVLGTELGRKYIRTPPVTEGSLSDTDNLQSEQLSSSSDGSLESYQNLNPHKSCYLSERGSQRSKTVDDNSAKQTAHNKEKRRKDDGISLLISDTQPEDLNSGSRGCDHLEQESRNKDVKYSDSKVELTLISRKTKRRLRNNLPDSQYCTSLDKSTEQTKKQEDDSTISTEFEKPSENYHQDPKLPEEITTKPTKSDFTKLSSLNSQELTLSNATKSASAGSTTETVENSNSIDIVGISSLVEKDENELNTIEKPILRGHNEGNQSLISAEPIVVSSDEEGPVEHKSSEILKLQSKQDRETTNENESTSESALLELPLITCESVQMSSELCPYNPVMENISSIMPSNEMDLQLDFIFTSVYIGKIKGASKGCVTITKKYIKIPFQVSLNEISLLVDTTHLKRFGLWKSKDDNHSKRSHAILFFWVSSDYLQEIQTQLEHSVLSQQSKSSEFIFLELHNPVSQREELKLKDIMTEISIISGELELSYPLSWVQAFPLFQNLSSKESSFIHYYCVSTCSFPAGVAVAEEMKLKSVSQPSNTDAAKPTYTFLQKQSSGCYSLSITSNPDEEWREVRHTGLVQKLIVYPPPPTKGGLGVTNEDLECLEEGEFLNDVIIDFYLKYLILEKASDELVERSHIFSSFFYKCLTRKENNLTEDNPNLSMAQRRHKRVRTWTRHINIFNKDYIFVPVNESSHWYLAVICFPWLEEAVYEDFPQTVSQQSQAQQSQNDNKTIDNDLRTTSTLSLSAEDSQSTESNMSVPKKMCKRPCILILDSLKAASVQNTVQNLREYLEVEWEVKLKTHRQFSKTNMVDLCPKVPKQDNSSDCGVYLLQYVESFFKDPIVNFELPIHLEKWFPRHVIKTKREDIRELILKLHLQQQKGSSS
# Caspase-3 = target: T3, Caspase-3 (Homo sapiens, UniProt P42574); type: functional;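 note: Dose-response selectivity test against caspase-3 for candidate inhibitors of sentrin-specific proteases (SENPs)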
# T3 sequence (P42574 whole entry): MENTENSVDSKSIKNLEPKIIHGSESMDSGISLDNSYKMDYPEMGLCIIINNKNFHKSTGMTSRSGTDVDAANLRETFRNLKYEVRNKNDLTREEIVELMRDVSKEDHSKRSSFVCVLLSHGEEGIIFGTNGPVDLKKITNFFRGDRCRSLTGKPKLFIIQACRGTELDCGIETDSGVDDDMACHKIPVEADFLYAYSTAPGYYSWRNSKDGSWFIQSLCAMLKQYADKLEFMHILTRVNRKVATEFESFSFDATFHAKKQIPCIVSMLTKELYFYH
# [4] = target: T4, Sentrin-specific protease 6 (Homo sapiens, UniProt Q9GZR1); type: functional;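 note: Luminescence-based dose-response confirmatory assay of SENP6 inhibition, following up an ultra-high-throughput screen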
# T4 sequence (Q9GZR1 whole entry): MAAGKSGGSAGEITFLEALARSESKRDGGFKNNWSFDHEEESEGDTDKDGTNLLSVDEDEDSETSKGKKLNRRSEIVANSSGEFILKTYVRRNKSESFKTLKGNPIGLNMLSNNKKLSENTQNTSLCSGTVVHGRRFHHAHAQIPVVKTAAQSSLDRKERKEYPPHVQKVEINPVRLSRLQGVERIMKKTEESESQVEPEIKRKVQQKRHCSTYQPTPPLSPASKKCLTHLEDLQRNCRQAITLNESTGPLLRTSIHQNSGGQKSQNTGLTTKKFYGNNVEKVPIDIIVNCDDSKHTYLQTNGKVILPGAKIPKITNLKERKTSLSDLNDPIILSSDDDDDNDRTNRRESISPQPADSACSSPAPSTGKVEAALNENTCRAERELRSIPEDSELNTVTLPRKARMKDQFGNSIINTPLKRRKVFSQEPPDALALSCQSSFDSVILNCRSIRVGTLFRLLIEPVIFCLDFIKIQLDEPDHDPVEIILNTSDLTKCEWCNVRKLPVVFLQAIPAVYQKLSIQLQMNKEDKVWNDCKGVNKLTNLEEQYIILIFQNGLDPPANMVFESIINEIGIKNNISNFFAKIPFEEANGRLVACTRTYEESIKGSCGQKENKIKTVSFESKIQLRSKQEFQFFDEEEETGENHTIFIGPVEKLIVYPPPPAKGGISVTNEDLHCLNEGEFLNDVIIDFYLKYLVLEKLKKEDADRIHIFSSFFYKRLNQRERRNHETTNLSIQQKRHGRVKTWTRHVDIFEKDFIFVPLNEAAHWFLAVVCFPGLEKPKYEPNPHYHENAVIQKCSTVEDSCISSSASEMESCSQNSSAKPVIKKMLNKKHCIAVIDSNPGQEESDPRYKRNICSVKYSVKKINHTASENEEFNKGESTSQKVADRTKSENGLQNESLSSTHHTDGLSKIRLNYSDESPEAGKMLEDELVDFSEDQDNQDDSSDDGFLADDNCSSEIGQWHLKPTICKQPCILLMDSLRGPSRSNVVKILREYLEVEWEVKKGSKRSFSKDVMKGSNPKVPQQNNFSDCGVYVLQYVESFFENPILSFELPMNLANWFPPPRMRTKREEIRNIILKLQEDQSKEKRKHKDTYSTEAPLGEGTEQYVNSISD
# [5] = cytotoxicity toward NIH3T3 fibroblasts, dose response, counter-screen, cell-based, ATP luminescence, mouse fibroblasts (AID 2010); type: functional;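 note: cells exposed to compound for about 90 hours before reading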
# [6] = intracellular Trypanosoma cruzi inhibitors in host cells – cell-based, plate reader, cherry-pick samples, set 3, dose response (AID 651818); type: functional;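 note: compounds incubated with infected cells for about four days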
# [7] = target: Induced myeloid leukemia cell differentiation protein Mcl-1 (Homo sapiens, UniProt Q07820); type: functional
# [8] = target: DNA (cytosine-5)-methyltransferase 1 (Homo sapiens, UniProt P26358); assay: DNMT1 methyltransferase inhibitors, confirmation, biochemical, fluorescent molecular beacon (AID 602386); type: functional
# [9] = ARNT/TACC3 interaction disruptors, potency, confirmation, biochemical, AlphaScreen, cherry-picked samples (AID 651703); type: functional, Homo sapiens;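 note: His-tagged ARNT PAS-B domain paired with GST-TACC3 E629A dimer coactivator fragment; potency of inhibitors that break up the complex and lower AlphaScreen signal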
# BJ [10] = assay: cytotoxicity toward BJ-TERT fibroblasts, dose response, cell-based, RAS-independent, luminescence (AID 1933); type: functional; details: Homo sapiens
# [11] = cytotoxicity in HMLE control line with eGFP shRNA, dose response, counter-screen for HMLE_sh_ECad selective toxicity project, cell-based, HMLE_sh_eGFP, luminescence (AID 463074); type: functional, Homo sapiens;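 note: HMLE human mammary epithelial cells expressing control shRNA against eGFP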
# [12] = inhibitors of firefly luciferase expression or activity, dose response, H4 neuroglioma cells, luminescence (AID 1990); type: functional, cell-based
# [13] = inhibitors of SNCA 5'UTR-driven reporter translation, confirmation, H4 neuroglioma cells, luminescence (AID 1988); type: functional, cell-based
# [14] = cytotoxicity in HEK-293T cells, dose response, cytotoxicity control for TCR NF-kB inhibitor project, luminescence, T-cell screen hits (AID 489026); type: functional, cell-based;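 note: cells exposed to compound about 14 hours before the viability readout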
# [15] = cytotoxicity toward DRD oncogenic fibroblasts, dose response, cell-based, non-viral oncogenic, luminescence (AID 1934); type: functional; details: Homo sapiens
# BJ [16] = assay: cells; type: functional, cell-based; details: Homo sapiens
# [17] = Luminescence Cell-Based Dose Response HTS to Identify Inhibitors of 5'UTR Stem-Loop Driven Prion Protein mRNA Translation in H4 Neuroglioblastoma Cells. [Related pubchem assays: 1827 (Project Summary), 1813 (Primary HTS)]; type: functional
# BJ [18] = assay: cytotoxicity toward BJ-TERT-LT-ST fibroblasts, dose response, cell-based, RAS-independent, luminescence (AID 1935); type: functional; details: Homo sapiens;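 note: BJ fibroblasts immortalized with TERT plus LT and ST oncogenes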
# [19] = Luminescence Cell-Based Dose Retest to Confirm Inhibitors of Cancer Stem Cells. [Related pubchem assays (depositor defined):AID2717, AID2721]; type: functional; details: Homo sapiens
# H9c2 = assay: cells; type: functional, cell-based; details: Rattus norvegicus, H9c2, Myocardium;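 note: confirmatory concentration-response retest of ultra-high-throughput screening hits for modulation of myocardial damage; cell death induced by hydrogen peroxide oxidative stress; compound pretreatment for 60 min then peroxide exposure for 2 h; potency is for protecting the cells against peroxide damage rather than for killing them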
# [20] = target: T5, Carboxy-terminal domain RNA polymerase II polypeptide A small phosphatase 1 (Homo sapiens, UniProt Q9GZU7); assay: inhibitors of CTDSP1, concentration-response testing, biochemical assay, absorbance-based, actives from ultra-high-throughput screening (AID 540297); type: functional
# T5 sequence (Q9GZU7 whole entry): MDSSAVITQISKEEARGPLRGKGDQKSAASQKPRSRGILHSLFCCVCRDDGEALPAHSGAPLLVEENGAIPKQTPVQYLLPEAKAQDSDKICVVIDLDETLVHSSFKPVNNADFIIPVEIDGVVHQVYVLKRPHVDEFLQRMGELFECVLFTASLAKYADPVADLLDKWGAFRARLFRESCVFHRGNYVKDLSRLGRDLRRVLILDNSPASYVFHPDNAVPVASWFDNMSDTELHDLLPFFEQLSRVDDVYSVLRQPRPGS
# [21] = HEp-2 cell cytotoxicity, dose response, cytotoxicity control for RSV inhibitor project, HTS (AID 2410); type: functional; details: human respiratory syncytial virus
# [22] = miR-122 activators in hepatoma reporter cells, dose response, cell-based, Huh7 psiCHECK-miR122, Renilla luciferase, cherry-picked (AID 651956); type: functional;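 note: huh7 hepatoma cells stably carrying a psiCHECK-2 miR-122 sensor plasmid; renilla luciferase signal reporting endogenous miR-122 activity after 48 h compound exposure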
# [23] = AlphaScreen signal interference compounds, dose response, artefact control for ARNT-TACC3 interaction inhibitor project, biochemical, luminescence, cherry-pick (AID 651705); type: functional;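 note: AlphaScreen bead proximity signal that flags compounds interfering with the detection technology; potency reflects signal decrease which marks the compound as an assay artifact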
# DNA (cytosine-5)-methyltransferase 1, sequence (P26358 whole entry, the tested form may be a part): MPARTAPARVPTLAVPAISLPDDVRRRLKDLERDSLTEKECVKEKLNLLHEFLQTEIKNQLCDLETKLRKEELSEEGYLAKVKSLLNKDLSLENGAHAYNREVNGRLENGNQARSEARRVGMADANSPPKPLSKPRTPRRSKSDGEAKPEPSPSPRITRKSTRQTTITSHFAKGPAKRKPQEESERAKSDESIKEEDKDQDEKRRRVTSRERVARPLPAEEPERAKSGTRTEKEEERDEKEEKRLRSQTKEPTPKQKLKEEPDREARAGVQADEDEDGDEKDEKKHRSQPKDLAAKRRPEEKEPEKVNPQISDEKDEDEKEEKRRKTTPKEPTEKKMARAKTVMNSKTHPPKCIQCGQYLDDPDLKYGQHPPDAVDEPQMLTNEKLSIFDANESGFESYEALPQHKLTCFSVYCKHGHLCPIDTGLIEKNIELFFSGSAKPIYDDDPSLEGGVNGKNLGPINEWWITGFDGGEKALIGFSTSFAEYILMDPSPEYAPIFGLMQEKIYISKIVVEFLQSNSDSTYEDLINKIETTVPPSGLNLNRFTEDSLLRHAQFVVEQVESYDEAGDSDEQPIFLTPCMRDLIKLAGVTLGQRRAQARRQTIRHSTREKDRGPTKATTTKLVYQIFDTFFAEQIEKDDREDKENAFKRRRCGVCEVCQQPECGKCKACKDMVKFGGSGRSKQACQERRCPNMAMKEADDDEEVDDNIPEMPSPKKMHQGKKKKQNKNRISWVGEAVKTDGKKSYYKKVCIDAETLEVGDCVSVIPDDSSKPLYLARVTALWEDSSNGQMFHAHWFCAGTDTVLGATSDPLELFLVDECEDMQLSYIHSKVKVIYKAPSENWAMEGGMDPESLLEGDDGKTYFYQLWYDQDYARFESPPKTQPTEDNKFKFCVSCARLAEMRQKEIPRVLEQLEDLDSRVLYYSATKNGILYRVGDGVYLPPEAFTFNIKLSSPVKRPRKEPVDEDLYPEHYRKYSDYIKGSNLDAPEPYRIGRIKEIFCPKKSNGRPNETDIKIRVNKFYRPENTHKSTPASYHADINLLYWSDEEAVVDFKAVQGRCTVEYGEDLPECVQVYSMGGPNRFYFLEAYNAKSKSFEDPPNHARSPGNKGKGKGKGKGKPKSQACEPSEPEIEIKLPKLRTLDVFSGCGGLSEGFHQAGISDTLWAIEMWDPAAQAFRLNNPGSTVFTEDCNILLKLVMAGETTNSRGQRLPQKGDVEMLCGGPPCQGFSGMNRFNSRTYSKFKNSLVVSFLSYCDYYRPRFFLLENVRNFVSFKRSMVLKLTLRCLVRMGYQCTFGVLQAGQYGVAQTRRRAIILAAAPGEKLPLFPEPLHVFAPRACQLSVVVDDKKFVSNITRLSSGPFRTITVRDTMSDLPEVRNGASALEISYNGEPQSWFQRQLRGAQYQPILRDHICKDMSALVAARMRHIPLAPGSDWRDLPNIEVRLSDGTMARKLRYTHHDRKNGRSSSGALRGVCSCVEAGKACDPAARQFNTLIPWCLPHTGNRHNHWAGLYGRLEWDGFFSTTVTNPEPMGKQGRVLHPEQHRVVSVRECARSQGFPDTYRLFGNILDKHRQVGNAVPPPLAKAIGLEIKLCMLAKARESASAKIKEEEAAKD
# Induced myeloid leukemia cell differentiation protein Mcl-1, sequence (Q07820 whole entry): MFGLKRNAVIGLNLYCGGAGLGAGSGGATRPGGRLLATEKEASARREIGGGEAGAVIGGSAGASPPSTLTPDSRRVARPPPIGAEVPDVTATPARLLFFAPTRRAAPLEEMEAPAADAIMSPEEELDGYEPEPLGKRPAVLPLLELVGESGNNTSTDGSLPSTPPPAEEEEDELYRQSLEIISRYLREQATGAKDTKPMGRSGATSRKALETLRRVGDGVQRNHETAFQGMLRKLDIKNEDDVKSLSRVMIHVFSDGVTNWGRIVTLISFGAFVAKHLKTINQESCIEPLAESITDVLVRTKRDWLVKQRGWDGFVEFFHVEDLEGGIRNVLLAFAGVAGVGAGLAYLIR
smiles,measurement,setting,value
Cc1ccc(C(=O)COC(=O)c2cccc(NC(=O)c3ccc([N+](=O)[O-])cc3[N+](=O)[O-])c2)cc1,EC50,[1],1.11 µM (active)
same,IC50,[2],> 100 µM (inactive)
same,IC50,[3],5.97 µM (active)
same,IC50,Caspase-3,22.2 µM (active)
same,IC50,[4],4.89 µM (active)
same,EC50,[5],> 60 µM (not active)
C[C@H]1CN([C@@H](C)CO)C(=O)c2cccc(NC(=O)Nc3cccc4ccccc34)c2O[C@H]1CN(C)S(=O)(=O)c1cccs1,AC50,[6],4.61 µM (active)
CCOC(=O)c1ccccc1N/C=C/C(=O)c1ccccc1,IC50,[2],18.7 µM (active)
same,IC50,[3],9.9 µM (active)
same,IC50,Caspase-3,33.1 µM (active)
same,IC50,[4],16.2 µM (active)
O=C(COC(=O)c1ccc(NS(=O)(=O)c2cccs2)cc1)NCc1ccco1,IC50,[7],3.09 µM (active)
same,IC50,[8],9.6 µM (active)
O=C(O)c1cccc(-c2nnn(Cc3ccccc3Cl)n2)c1,IC50,[2],10.9 µM (active)
same,IC50,[3],> 100 µM (inactive)
same,IC50,Caspase-3,15.6 µM (active)
same,IC50,[4],> 100 µM (inactive)
COCCn1c(N)c(C(=O)NCc2cccs2)c2nc3ccccc3nc21,AC50,[9],130 µM (active)
Cc1ccc(NS(=O)(=O)c2ccc(-c3cnc(C4CC4)o3)cc2)c(C)c1,EC50,BJ [10],1.2 µM (active)
same,AC50,[11],5.23 µM (inconclusive)
same,EC50,[12],4.97 µM (inconclusive)
same,EC50,[13],0.502 µM (active)
same,IC50,[14],51.2 µM (inactive)
same,EC50,[15],18.9 µM (inconclusive)
same,EC50,BJ [16],0.985 µM (active)
same,EC50,[17],3.3 µM (active)
same,EC50,BJ [18],0.847 µM (inconclusive)
same,AC50,[19],< 0.16 µM (active)
C[C@H]1CN([C@@H](C)CO)C(=O)c2cccc(NC(=O)CCCCCC(=O)Nc3ccccc3N)c2O[C@@H]1CN(C)CC1CC1,AC50,[6],2.88 µM (active)
CCn1c(SCC(=O)N2CCN(c3ccc(F)cc3)CC2)nc2ccccc2c1=O,AC50,[11],58.9 µM (active)
same,AC50,[19],20.1 µM (active)
Cc1c(Cl)cnc(NC(=O)COC(=O)c2ccc([N+](=O)[O-])s2)c1Cl,IC50,H9c2,> 79 µM (inactive)
same,IC50,[2],6.85 µM (active)
same,IC50,[3],10.6 µM (active)
same,IC50,Caspase-3,11.1 µM (active)
same,IC50,[4],5.92 µM (active)
O=C1CC(=O)NC(SCC(=O)Nc2ccccc2[N+](=O)[O-])=N1,IC50,[8],8.51 µM (active)
same,IC50,[20],4.04 µM (active)
C[C@@H]1CN([C@@H](C)CO)C(=O)c2cccc(NC(=O)Nc3ccc4c(c3)OCO4)c2O[C@H]1CN(C)Cc1ccc(C(=O)Nc2ccccc2N)cc1,AC50,[6],1.04 µM (active)
COc1ccc(-c2c(C)nn3c(N)c(-c4ccccc4)cnc23)cc1OC,AC50,[11],34.8 µM (active)
same,CC50,[21],43.3 µM (active)
same,AC50,[22],6.96 µM (active)
same,AC50,[19],11.9 µM (active)
CCCCCCCCC(=O)c1c(OC)oc(C=O)cc1=O,IC50,[8],8.25 µM (active)
O=C(CSc1ccc2nnc(-c3ccccn3)n2n1)Nc1ccccc1C(F)(F)F,AC50,[23],136 µM (active)
